Experimental data published in BindingDB's records for doi:10.1021/acs.jmedchem.9b01226 (Purdue University, 2020).

Columns and labels:
[1] = target: T1, Proteasome subunit beta type-8 (Homo sapiens, UniProt P28062); experiment: Inhibition of immunoproteasome subunit LMP7 in human OPM1 cells assessed as reduction in cell viability incubated for 48 hrs by MTT assay
T1 sequence (P28062 whole entry): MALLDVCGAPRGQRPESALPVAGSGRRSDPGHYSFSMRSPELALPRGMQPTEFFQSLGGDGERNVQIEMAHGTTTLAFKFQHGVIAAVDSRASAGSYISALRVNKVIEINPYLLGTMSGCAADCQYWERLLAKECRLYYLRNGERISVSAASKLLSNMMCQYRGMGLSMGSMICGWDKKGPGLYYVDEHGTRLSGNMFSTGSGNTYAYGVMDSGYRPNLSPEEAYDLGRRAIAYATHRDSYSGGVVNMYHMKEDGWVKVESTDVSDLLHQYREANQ

[2] = target: T1, Proteasome subunit beta type-8; experiment: Inhibition of immunoproteasome subunit LMP7 in human MM.1S cells assessed as reduction in cell viability incubated for 48 hrs by MTT assay
[3] = target: T1, Proteasome subunit beta type-8; experiment: Inhibition of immunoproteasome subunit LMP7 in human RPMI8226 cells assessed as reduction in cell viability incubated for 48 hrs by MTT assay
[4] = target: T1, Proteasome subunit beta type-8; experiment: Inhibition of immunoproteasome subunit LMP7 in human LR5 cells assessed as reduction in cell viability incubated for 48 hrs by MTT assay
[5] = target: T1, Proteasome subunit beta type-8; experiment: Inhibition of immunoproteasome subunit LMP7 in human DOX40 cells assessed as reduction in cell viability incubated for 48 hrs by MTT assay
[6] = target: T1, Proteasome subunit beta type-8; experiment: Inhibition of immunoproteasome subunit LMP7 in human INA60 cells assessed as reduction in cell viability incubated for 48 hrs by MTT assay
[7] = target: T1, Proteasome subunit beta type-8; experiment: Inhibition of immunoproteasome subunit LMP7 in human MM.1R cells assessed as reduction in cell viability incubated for 48 hrs by MTT assay
[8] = target: T1, Proteasome subunit beta type-8; experiment: Inhibition of immunoproteasome subunit LMP7 in human KMS12PE cells assessed as reduction in cell viability incubated for 48 hrs by MTT assay
[9] = target: T1, Proteasome subunit beta type-8; experiment: Inhibition of immunoproteasome subunit […] in human OPM1 cells assessed as reduction in cell viability incubated for 48 hrs by MTT assay

Measured: IC50

CC1=C(C(=O)N[C@H](C)C(=O)N[C@@H](Cc2c[nH]c3ccccc23)C(=O)N[C@@H](Cc2ccccc2)C(=O)[C@@]2(C)CO2)Cc2ccccc21
3 µM: all assays above
